Assay results taken from US10231954B2, “Neurodegenerative therapies” (LYTIX BIOPHARMA AS, priority 2014, dated 2019).

Legend:
Assay type in all cases: biochemical
CHK2 = CHK2 (Homo sapiens, UniProt O96017); assay: Kinase profiling CHK2; settings: 100 micromolar inhibitor concentration, 100 is no change; for remaining activity at 100 µM: read-out: residual kinase activity, CHK2
Text: (§1) Any value less that 25 is considered to be highly significant inhibition.

JNK3 = JNK3 (Homo sapiens, UniProt P53779); assay: Kinase profiling JNK3; settings: 100 micromolar inhibitor concentration, 100 is no change; for remaining activity at 100 µM: read-out: residual kinase activity, JNK3
Text: as §1

DYRK1A = DYRK1A (Homo sapiens, UniProt Q13627); assay: DYRK 1A assay (kinase profiling); settings: 100 micromolar inhibitor concentration, 100 is no change; for remaining activity at 100 µM: read-out: residual kinase activity, DYRK1A
Procedure: Assays are stopped by addition of 5 μl of 0.5 M (3%) orthophosphoric acid and then harvested onto P81 Unifilter plates with a wash buffer of 50 mM orthophosphoric acid.
as §1

PIM1 = PIM1 (Homo sapiens, UniProt P11309); assay: Kinase profiling PIM1; settings: 100 micromolar inhibitor concentration, 100 is no change; for remaining activity at 100 µM: read-out: residual kinase activity, PIM1
Text: as §1

TBK1 = target: T1, TBK1 (Homo sapiens, UniProt Q9UHD2); assay: Kinase profiling TBK1; settings: 100 micromolar inhibitor concentration, 100 is no change; for remaining activity at 100 µM: read-out: residual kinase activity, TBK1
T1 sequence (Q9UHD2 1-729): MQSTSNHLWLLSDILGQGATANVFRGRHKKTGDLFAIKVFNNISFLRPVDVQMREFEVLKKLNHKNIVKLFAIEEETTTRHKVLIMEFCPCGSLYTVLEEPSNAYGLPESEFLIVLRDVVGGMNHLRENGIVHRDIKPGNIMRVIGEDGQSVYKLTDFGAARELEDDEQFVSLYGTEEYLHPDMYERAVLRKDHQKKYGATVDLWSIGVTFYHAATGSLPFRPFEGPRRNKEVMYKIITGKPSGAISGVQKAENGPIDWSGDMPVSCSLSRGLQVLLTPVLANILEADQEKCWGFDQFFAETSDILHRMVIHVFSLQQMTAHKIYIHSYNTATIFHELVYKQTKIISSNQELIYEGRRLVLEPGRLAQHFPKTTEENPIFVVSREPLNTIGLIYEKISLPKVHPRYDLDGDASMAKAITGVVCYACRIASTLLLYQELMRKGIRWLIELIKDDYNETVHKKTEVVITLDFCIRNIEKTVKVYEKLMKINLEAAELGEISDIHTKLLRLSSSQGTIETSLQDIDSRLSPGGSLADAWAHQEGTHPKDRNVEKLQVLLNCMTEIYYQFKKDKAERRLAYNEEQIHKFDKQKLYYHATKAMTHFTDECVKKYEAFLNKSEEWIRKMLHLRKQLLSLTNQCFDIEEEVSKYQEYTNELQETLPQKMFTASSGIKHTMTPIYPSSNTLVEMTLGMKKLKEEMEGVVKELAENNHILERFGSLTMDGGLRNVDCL
Text: as §1

PKCa = PKCa (Homo sapiens, UniProt P17252); assay: Kinase profiling PKCa; settings: 100 micromolar inhibitor concentration, 100 is no change; for remaining activity at 100 µM: read-out: residual kinase activity, PKCa
Text: as §1

p38d MAPK = target: T2, p38d MAPK (Homo sapiens, UniProt O15264); assay: Kinase profiling p38d MAPK; settings: 100 micromolar inhibitor concentration, 100 is no change; for remaining activity at 100 µM: read-out: residual kinase activity, p38d MAPK
T2 sequence (O15264 1-365): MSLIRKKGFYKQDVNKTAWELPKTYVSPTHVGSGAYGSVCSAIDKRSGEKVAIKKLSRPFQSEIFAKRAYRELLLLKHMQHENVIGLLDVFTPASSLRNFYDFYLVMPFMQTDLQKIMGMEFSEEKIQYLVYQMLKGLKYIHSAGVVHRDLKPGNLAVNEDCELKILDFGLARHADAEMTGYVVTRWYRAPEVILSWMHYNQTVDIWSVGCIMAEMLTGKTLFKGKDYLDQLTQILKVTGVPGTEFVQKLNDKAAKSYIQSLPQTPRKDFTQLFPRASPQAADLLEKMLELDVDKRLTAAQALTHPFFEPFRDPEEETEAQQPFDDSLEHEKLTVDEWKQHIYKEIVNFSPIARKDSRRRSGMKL
Text: as §1

p38b MAPK = p38b MAPK (Homo sapiens, UniProt Q15759); assay: Kinase profiling p38b MAPK; settings: 100 micromolar inhibitor concentration, 100 is no change; for remaining activity at 100 µM: read-out: residual kinase activity, p38b MAPK
Text: as §1

CK2 = assay: Kinase profiling CK2; settings: 100 micromolar inhibitor concentration; 100 is no change
Text: as §1

TrkA = TrkA (Homo sapiens, UniProt P04629); assay: Kinase profiling TrkA; settings: 100 micromolar inhibitor concentration, 100 is no change; for remaining activity at 100 µM: read-out: residual kinase activity, TrkA
Text: as §1

MARK3 = MARK3 (Homo sapiens, UniProt P27448); assay: Kinase profiling MARK3; settings: 100 micromolar inhibitor concentration, 100 is no change; for remaining activity at 100 µM: read-out: residual kinase activity, MARK3
Text: as §1

RSK1 = RSK1 (Homo sapiens, UniProt Q15418); assay: Kinase profiling RSK1; settings: 100 micromolar inhibitor concentration, 100 is no change; for remaining activity at 100 µM: read-out: residual kinase activity, RSK1
Text: as §1

RIPK2 = RIPK2 (Homo sapiens, UniProt O43353); assay: Kinase profiling RIPK2; settings: 100 micromolar inhibitor concentration, 100 is no change; for remaining activity at 100 µM: read-out: residual kinase activity, RIPK2
Text: as §1

PKD1 = target: T3, PKD1 (Homo sapiens, UniProt Q15139); assay: Kinase profiling PKD1; settings: 100 micromolar inhibitor concentration, 100 is no change; for remaining activity at 100 µM: read-out: residual kinase activity, PKD1
T3 sequence (Q15139 1-912): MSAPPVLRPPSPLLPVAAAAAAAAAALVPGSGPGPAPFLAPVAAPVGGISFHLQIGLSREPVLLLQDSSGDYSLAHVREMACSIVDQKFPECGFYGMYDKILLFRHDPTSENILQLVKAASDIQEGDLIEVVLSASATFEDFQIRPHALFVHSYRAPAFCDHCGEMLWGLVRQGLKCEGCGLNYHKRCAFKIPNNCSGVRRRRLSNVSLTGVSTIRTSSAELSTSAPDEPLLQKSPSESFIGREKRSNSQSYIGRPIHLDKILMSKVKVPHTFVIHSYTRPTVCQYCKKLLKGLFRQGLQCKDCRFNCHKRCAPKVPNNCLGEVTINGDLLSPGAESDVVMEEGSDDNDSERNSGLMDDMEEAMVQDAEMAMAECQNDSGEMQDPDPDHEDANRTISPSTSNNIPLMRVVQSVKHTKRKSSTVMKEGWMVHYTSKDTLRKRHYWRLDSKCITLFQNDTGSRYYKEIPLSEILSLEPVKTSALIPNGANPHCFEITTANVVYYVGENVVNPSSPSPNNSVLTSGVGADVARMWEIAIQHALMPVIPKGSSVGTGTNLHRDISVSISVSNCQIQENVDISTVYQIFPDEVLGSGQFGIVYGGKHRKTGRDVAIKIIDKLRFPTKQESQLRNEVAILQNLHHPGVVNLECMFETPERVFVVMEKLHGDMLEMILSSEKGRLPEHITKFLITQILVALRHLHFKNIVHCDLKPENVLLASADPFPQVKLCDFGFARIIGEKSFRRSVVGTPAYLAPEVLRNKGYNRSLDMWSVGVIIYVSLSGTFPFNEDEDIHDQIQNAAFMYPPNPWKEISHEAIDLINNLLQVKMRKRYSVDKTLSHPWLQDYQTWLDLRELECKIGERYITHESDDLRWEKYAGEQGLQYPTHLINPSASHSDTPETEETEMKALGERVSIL
Text: as §1

PIM1, sequence (P11309 whole entry, species assumed): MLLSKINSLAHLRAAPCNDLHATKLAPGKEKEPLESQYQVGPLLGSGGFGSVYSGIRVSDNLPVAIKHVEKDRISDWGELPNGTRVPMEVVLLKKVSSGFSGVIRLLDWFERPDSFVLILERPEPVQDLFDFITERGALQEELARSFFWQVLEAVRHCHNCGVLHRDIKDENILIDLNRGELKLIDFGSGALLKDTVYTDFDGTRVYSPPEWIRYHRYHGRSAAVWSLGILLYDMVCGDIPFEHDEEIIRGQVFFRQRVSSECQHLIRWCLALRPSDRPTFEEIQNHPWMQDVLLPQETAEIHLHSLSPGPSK
JNK3, sequence (P53779 whole entry, species assumed): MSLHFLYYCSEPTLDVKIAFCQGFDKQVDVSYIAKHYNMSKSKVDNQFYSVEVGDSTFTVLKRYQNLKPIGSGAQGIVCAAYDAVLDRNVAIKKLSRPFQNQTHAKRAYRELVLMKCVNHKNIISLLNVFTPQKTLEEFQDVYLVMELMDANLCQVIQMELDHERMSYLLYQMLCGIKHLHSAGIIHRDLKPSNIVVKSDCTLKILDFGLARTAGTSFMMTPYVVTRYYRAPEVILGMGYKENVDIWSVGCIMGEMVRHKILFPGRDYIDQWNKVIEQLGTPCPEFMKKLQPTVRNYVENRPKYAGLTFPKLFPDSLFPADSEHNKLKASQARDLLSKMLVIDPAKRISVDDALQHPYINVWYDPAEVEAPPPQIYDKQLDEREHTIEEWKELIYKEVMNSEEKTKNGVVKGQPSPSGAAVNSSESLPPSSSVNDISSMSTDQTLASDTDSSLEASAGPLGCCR
TrkA, sequence (P04629 33-796, species assumed): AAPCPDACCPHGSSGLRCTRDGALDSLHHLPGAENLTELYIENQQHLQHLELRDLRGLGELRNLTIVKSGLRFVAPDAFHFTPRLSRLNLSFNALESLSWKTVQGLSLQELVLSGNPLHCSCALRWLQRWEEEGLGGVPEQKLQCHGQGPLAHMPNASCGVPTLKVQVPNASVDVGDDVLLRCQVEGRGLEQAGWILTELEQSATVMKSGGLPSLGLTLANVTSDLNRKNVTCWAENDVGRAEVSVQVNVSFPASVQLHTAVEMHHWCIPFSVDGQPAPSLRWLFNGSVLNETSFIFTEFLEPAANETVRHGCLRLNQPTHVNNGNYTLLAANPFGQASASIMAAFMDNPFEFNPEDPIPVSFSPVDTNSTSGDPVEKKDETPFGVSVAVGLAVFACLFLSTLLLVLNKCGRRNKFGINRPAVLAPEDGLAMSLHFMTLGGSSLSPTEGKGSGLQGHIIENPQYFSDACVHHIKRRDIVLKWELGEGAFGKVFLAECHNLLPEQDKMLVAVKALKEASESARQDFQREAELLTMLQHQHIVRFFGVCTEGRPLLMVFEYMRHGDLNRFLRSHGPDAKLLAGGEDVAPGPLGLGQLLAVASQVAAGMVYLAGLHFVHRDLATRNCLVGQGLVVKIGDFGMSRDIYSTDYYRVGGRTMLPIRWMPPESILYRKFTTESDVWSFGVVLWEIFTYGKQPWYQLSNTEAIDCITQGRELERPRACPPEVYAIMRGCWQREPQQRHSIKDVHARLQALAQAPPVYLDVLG
MARK3, sequence (P27448 whole entry, species assumed): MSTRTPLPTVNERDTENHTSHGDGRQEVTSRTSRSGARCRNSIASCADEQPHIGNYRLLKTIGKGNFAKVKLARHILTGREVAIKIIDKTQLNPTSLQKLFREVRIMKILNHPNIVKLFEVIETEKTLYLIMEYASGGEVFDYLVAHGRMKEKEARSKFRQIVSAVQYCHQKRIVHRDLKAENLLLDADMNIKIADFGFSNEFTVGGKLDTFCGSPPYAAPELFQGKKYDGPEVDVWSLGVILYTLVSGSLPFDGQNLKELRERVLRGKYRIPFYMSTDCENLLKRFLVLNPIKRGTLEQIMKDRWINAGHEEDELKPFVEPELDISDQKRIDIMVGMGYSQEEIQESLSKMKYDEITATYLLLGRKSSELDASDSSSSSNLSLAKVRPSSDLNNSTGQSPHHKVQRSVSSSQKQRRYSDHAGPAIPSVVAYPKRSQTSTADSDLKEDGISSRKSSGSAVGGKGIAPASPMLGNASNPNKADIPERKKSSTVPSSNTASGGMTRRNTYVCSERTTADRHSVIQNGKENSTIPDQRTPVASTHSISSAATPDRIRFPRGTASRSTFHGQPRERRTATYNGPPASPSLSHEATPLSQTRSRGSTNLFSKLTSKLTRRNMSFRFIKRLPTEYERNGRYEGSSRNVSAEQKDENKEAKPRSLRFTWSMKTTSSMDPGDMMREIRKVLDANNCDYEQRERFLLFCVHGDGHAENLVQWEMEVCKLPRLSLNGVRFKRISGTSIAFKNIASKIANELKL
RIPK2, sequence (O43353 whole entry, species assumed): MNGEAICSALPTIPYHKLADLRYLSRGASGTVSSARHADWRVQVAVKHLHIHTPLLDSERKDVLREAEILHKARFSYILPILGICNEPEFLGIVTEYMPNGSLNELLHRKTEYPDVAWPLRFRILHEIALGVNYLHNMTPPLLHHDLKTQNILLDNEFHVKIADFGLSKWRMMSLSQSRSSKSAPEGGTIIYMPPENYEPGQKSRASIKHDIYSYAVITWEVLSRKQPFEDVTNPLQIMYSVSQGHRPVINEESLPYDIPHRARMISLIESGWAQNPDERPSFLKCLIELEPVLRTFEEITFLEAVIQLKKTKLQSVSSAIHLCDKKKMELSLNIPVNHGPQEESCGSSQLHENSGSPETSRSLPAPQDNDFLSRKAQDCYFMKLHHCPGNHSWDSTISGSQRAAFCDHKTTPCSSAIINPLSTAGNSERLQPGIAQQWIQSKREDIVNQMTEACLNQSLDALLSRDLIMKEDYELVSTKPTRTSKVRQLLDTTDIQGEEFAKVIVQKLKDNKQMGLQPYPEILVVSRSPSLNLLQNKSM
RSK1, sequence (Q15418 whole entry, species assumed): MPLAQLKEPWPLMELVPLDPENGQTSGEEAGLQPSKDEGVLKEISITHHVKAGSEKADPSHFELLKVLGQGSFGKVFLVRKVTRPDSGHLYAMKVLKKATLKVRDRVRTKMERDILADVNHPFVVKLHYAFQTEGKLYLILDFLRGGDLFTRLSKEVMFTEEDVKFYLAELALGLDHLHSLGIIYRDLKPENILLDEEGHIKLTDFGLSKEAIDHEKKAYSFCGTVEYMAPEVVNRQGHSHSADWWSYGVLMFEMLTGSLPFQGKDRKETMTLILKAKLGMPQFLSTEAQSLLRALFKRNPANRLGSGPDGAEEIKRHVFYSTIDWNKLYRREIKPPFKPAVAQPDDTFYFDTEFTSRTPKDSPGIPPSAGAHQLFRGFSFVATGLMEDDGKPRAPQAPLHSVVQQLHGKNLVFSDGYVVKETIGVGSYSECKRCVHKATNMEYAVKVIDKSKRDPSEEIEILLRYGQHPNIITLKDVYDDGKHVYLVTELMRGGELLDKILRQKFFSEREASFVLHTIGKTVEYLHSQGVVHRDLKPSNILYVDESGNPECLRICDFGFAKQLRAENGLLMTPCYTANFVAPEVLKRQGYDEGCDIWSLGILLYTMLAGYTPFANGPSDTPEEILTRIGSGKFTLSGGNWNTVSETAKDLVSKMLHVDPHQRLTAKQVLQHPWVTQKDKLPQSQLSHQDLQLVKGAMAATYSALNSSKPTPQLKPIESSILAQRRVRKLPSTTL
CHK2, sequence (O96017 whole entry, species assumed): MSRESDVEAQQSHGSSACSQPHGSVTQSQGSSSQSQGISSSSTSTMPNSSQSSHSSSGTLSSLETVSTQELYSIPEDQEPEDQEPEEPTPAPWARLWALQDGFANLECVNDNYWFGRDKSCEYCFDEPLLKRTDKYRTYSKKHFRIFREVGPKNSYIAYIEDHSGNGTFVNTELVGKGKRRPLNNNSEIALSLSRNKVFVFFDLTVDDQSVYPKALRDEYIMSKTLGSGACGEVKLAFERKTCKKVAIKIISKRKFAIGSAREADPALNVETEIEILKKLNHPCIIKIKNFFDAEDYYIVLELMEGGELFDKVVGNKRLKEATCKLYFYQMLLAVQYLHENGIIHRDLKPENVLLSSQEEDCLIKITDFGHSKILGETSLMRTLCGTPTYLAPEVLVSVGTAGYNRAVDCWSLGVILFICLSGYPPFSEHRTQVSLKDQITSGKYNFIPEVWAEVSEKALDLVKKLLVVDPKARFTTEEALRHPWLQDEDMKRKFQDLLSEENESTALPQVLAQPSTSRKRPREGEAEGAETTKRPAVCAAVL

SMILES	remaining activity at 100 µM (CHK2) [%]	remaining activity at 100 µM (JNK3) [%]	remaining activity at 100 µM (DYRK1A) [%]	remaining activity at 100 µM (PIM1) [%]	remaining activity at 100 µM (TBK1) [%]	remaining activity at 100 µM (PKCa) [%]	remaining activity at 100 µM (p38d MAPK) [%]	remaining activity at 100 µM (p38b MAPK) [%]	residual kinase activity, CK2 (CK2)	remaining activity at 100 µM (TrkA) [%]	remaining activity at 100 µM (MARK3) [%]	remaining activity at 100 µM (RSK1) [%]	remaining activity at 100 µM (RIPK2) [%]	remaining activity at 100 µM (PKD1) [%]	other results
CC(=O)Nc1nc2ccc(C#N)cc2s1 [Compound 01-94]	30	53	9	26	41	93	69	100	66	87	50	51	17	97	–
O=C(Nc1nc2cc(O)ccc2s1)c1ccncc1 [Compound 03-11]	–	–	–	–	–	–	–	–	68	–	–	–	–	–	residual kinase activity, CHK2 (CHK2): 93; residual kinase activity, JNK3 (JNK3): 77; residual kinase activity, DYRK1A (DYRK1A): 50; residual kinase activity, PIM1 (PIM1): 74; residual kinase activity, TBK1 (TBK1): 80; residual kinase activity, PKCa (PKCa): 91; residual kinase activity, p38d MAPK (p38d MAPK): 82; residual kinase activity, p38b MAPK (p38b MAPK): 97; residual kinase activity, TrkA (TrkA): 87; residual kinase activity, MARK3 (MARK3): 75; residual kinase activity, RSK1 (RSK1): 83; residual kinase activity, RIPK2 (RIPK2): 60; residual kinase activity, PKD1 (PKD1): 74
COc1ccc2sc(NC(C)=O)nc2c1 [Compound 03-21]	58	80	2	8	81	101	75	101	87	78	72	93	29	59	–
CC(=O)Nc1nc2cc(C(F)(F)F)ccc2s1 [Compound 03-73]	78	83	22	10	64	111	52	97	105	74	63	89	48	83	–
CC(=O)Nc1nc2cc(F)ccc2s1 [Compound 03-77]	63	68	7	19	74	101	76	79	81	59	58	72	64	66	–
CC(=O)Nc1nc2ccc(C(F)(F)F)cc2s1 [Compound 01-90]	43	76	8	71	83	101	76	82	92	45	61	74	23	119	–
O=C(Nc1nc2ccc(O)cc2s1)c1cccnc1 [Compound 08-44]	–	–	–	–	–	–	–	–	19	–	–	–	–	–	residual kinase activity, CHK2 (CHK2): 16; residual kinase activity, JNK3 (JNK3): 64; residual kinase activity, DYRK1A (DYRK1A): 8; residual kinase activity, PIM1 (PIM1): 42; residual kinase activity, TBK1 (TBK1): 81; residual kinase activity, PKCa (PKCa): 67; residual kinase activity, p38d MAPK (p38d MAPK): 62; residual kinase activity, p38b MAPK (p38b MAPK): 89; residual kinase activity, TrkA (TrkA): 71; residual kinase activity, MARK3 (MARK3): 65; residual kinase activity, RSK1 (RSK1): 41; residual kinase activity, RIPK2 (RIPK2): 21; residual kinase activity, PKD1 (PKD1): 54
